Among the data in ChEMBL document CHEMBL3217677, “Synthesis, biological evaluation and X-ray crystallographic studies of imidazo[1,2-a]pyridine-based Mycobacterium tuberculosis glutamine synthetase inhibitors” (Medchemcomm, 2012) are IC50 values, retold here.

The nature of this experiment: Inhibition of Mycobacterium tuberculosis glutamine synthetase expressed in Escherichia coli GJ4745 after 1 hr by colorimetry.
One may read the IC50 as the point on the concentration scale where inhibition reaches its midpoint. Lower therefore signals higher potency. Consider `CCCCNc1c(-c2cccc(O)c2)nc2ccc(Br)cn12`, for which the half-maximal inhibitory concentration (IC50) turned out to be 1.4 µM.
In turn, `CCCCNc1c(-c2ccc(N(CCO)CCO)cc2)nc2ccc(Br)cn12` came in with an IC50 of 22 µM.
In turn, `CCCCNc1c(-c2ccc(O)c(OC)c2)nc2ccc(Br)cn12` came in with a half-inhibitory concentration (IC50) of 1.5 µM.
For `CCCCNc1c(-c2ccc(OCC(=O)O)cc2)nc2ccc(Br)cn12` the value was 1.6 µM; for `CCCCCNc1c(-c2ccc(OCCO)cc2)nc2ccc(Br)cn12`, 4.9 µM.
The same measure for `CCCCNc1c(-c2cccc(OCCO)c2)nc2ccc(Br)cn12`: 2.2 µM; for `OCCOc1ccc(-c2nc3ccc(Br)cn3c2NC2CCCC2)cc1`: > 25 µM; for `CCCCNc1c(-c2ccc(N(C)CCO)cc2)nc2ccc(Br)cn12`: 8.3 µM.
The same measure for `Cn1c(N2CCOCC2)nc2c1c(=O)n(Cc1ccc(Cl)c(Cl)c1)c(=O)n2C`: 2.5 µM.
For `CCCCNc1c(-c2ccc(OCCN(C)C)cc2)nc2ccc(Br)cn12`, the IC50 is 5.8 µM.
The same measure for `Fc1cc(-c2nc3ccc(Br)cn3c2NC2CCCC2)ccc1N1CCOCC1`: > 25 µM.
The same measure for `CN(C)c1ccc(-c2nc3ccc(Br)cn3c2NC2CCCC2)cc1`: > 25 µM.
For `Brc1ccc2nc(-c3ccccc3-c3ccccc3)c(NC3CCCC3)n2c1` the value was > 25 µM.
Turning to `CC(C)Nc1c(-c2ccc(F)c(F)c2F)nc2ccc(Br)cn12`, the IC50 is > 25 µM.
For `CC(C)(C)Nc1c(-c2ccccc2O)nc2ccc(Br)cn12` the value was > 25 µM.
For `CCCNc1c(-c2ccc(OCCO)cc2)nc2ccc(Br)cn12` the value was 3.9 µM; for `Brc1ccc2nc(-c3ccccc3)c(NCCc3ccccc3)n2c1`, > 25 µM.
For `CCCCNc1c(-c2ccc(OCCO)cc2)nc2ccc(Br)cn12` the value was 3 µM; for `CCCCNc1c(-c2ccc(OCCC)cc2)nc2ccc(Br)cn12`, 15 µM.
With `COc1ccc(Nc2c(-c3ccc(OCc4ccccc4)c(OCc4ccccc4)c3)nc3ccc(Br)cn23)cc1`, the IC50 is > 25 µM.
The same measure for `CCCCNc1c(-c2ccc(OCC#N)cc2)nc2ccc(Br)cn12`: 10 µM.
The same measure for `CC(C)Nc1c(-c2ccc(OCCO)cc2)nc2ccc(Br)cn12`: > 25 µM.
The same measure for `CCCCNc1c(-c2ccc(OC)c(O)c2)nc2ccc(Br)cn12`: 1.9 µM; for `CCCCNc1c(-c2cccc(C(=O)O)c2)nc2ccc(Br)cn12`: 0.6 µM; for `COc1cccc(-c2nc3ccc(Br)cn3c2NCCN2CCOCC2)c1OC`: > 25 µM.
As to `CC(C)Nc1c(-c2cccc(N3CCOCC3)c2)nc2ccc(Br)cn12`, the IC50 was > 25 µM.
The same measure for `COc1cccc(-c2nc3ccc(Br)cn3c2NC2CCCC2)c1OCc1ccccc1`: > 25 µM; for `CCCCNc1c(-c2ccc(OCC(N)=O)cc2)nc2ccc(Br)cn12`: 6.3 µM.
For `OCCOc1ccc(-c2nc3ccc(Br)cn3c2Nc2ccc(F)cc2)cc1` the value was > 25 µM; for `CS(=O)(=O)c1cc(Cl)ccc1-c1nc2ccc(Br)cn2c1NC1CCCC1`, > 25 µM; for `Oc1ccc(-c2nc3ccc(Br)cn3c2NC2CCCCC2)c(Cl)c1`, > 25 µM.
